Numbers after ± are expanded uncertainties.
Legend:
[1] = 293.15 K; 101.33 kPa; Liquid
[2] = refractive index (Na D-line) (dimensionless); conditions: 293.15 K; 101.33 kPa; Liquid; Standard Abbe refractometry

Row | Compound | mass density [1] [kg/m3] | refractive index [2]
1 | OC1CCCCC1 [cyclohexanol] | 962.3 ± 0.6 | 1.4639 ± 0.0006
2 | CC(=O)OC1CCCCC1 [cyclohexyl ethanoate] | 968.2 ± 0.5 | 1.4422 ± 0.0006
3 | O [water] | 998.4 ± 0.5 | 1.3326 ± 0.0006

More lines, now with the values ahead:

Row | mass density [1] [kg/m3] | refractive index [2] | Compound
4 | 875 ± 0.8 | 1.4026 ± 0.0006 | CCCCCOC(C)=O [pentyl ethanoate]
5 | 803.5 ± 1 | 1.385 ± 0.0006 | CCCO [propan-1-ol]

— the NIST ThermoML archive (doi:10.1016/j.fluid.2007.01.021)
